Tests used:
[1] = biological target: Dopamine receptor; assay: Relative affinity for dopamine receptor by displacement of [3H]spiroperidol (2.2 nM) from (in vitro) dopamine binding sites in rat caudate nuclei
[2] = biological target: Muscarinic acetylcholine receptor; assay: Concentration required (in vitro) to displace 50% specific binding of [3H]clozapine to Muscarinic acetylcholine receptor in rat brain; format: tissue-based
[3] = Concentration required (in vitro) to displace 50% specific binding of [3H]clozapine to non-muscarinic sites in rat brain in presence of 1 uM atropine; format: tissue-based
[4] = Concentration required (in vitro) to displace 50% specific binding of [3H]clozapine to sites in rat brain

SMILES	IC50 [1] [µM]	IC50 [2] [µM]	IC50 [3] [µM]	IC50 [4] [µM]
CN1CCC(C2=Cc3cc(Cl)ccc3Cc3ccccc32)CC1	0.678	0.622	0.007	–
CN1CCN(C2=Nc3ccccc3Nc3ccc(Cl)cc32)CC1 [ISOCLOZAPINE]	0.758	–	–	0.017
CN1CCN(C2=Nc3cc(Cl)ccc3Nc3ccccc32)CC1 [CLOZAPINE]	–	–	0.013	–
CC1CCN(C2=Cc3ccccc3Cc3ccc(Cl)cc32)CC1	–	> 10	> 10	–
CN1CCN(C2=Cc3cc(Cl)ccc3Cc3ccccc32)CC1	0.342	0.67	0.013	–
CN1CCN(C2=Nc3cc(Cl)ccc3N(C)c3ccccc32)CC1	32.4	0.012	0.088	–
CC1CCN(C2=Cc3cc(Cl)ccc3Cc3ccccc32)CC1	> 10	> 10	> 10	–
CN1CCN(C2=Nc3cc(Cl)ccc3Oc3ccccc32)CC1 [ISOLOXAPINE]	2.48	0.049	0.038	–
CN1CCN(C2=Cc3ccccc3Cc3ccccc32)CC1	0.808	0.61	0.0037	–
CN1CCN(C2=Cc3ccccc3Cc3ccc(Cl)cc32)CC1	0.039	0.29	0.01	–

Source: ChEMBL document CHEMBL1121688 (J Med Chem, 1981)
